Experimental data: patent US20160100573A1, “QUATERNARY ORGANOSILICON SURFACTANTS, METHODS OF MAKING SAME AND APPLICATIONS CONTAINING THE SAME” (Momentive Performance Materials Inc., priority 2014, published 2016)

Experiments:
[1] = Spreading of surfactant solutions on polystyrene surface (spread diameter after 30 seconds); type: physicochemical; set-up: unit not given here
Procedure: Spreading was determined using between 0.1% and 0.4% (actives) surfactant. Solutions were prepared in Milli-Pore water (deionized) where a 10 μl, drop was placed on a polystyrene surface (Petri-dish) and the spread diameter determined after 30 seconds.

[2] = Dispersibility / cloud point of surfactant in glyphosate-isopropyl amine 480 g/L formulation; type: physicochemical; details: for Cloud Point (50 g/L): surfactant at 5% in glyphosate 480 g/L formulation
Procedure: Aqueous glyphosate-isopropyl amine (480 g/L) formulations containing 5% of either Comparative-B or the composition of the present invention were prepared and evaluated for dispersion properties. The formulations were visually observed for clarity at 20-22° C., and if clear to hazy, the cloud point was also measured.
Cloud point was determined by placing 15 mL of formulation in a 20 dram vial containing a digital thermometer, and slowly heating the mixture on a magnetic stirrer/hot plate. The temperature at which the solution became opaque was recorded as the cloud point.

[3] = tested on: Barnyardgrass (Echinochloa crus-galli); assay: Effect of adjuvant on uptake of 14C-glyphosate isopropylamine salt into Barnyardgrass; type: in vivo
Procedure: In one other embodiment herein the quaternary organosilicon surfactant composition of the present invention is such that the foliar uptake of various agricultural chemicals is faster for applications containing the quaternary organosilicon having the general formula (I) than that for equivalent applications containing a tallow amine ethoxylate.
Uptake of ^14C-glyphosate (herbicide) into Barnyardgrass (Echinochloa crus-galli) was determined at 2 and 24 hours after treatment (HAT) according to the method described by Gaskin et al. (Gaskin, R. E.; Stevens, P. J. G. 1992. Pestic. Sci. 38: 185-192.), to establish the impact of surfactant on the speed of uptake. Uptake was determined on adaxial surface of youngest fully expanded leaf; plant at 4 leaf stage, ca 10 cm tall.

[4] = Impact of cosurfactant on spreading of QC-1A on polystyrene surface; type: physicochemical; details: 0.2 wt % QC-1A, 0 wt % cosurfactant
Procedure: Spreading was determined using 0.2% (actives) total surfactant solutions, where a […] was placed on a polystyrene surface and the spread diameter determined after 30 seconds. The ratio of QC-1A to Cosurfactant was varied to determine the potential for synergistic or antagonistic effects from interaction between the two surfactants. The spread results (Actual) for each set were compared to a predicted value (weighted average) based on a linear relationship between QC-1A and the Cosurfactant.

[5] = Aqueous surface tension by Wilhelmy Plate method (Kruss Tensiometer); type: physicochemical; details: ~22° C.; for CMC: 0.005M NaCl
Procedure: The aqueous surface tension of the various surfactants was determined by the Wilhelmy Plate method using a sand-blasted platinum blade as the sensor. Measurements were made using a Kruss surface Tensiometer. Surfactant solutions were prepared between 0.00001% and 1 wt % in 0.005M NaCl at ambient temperatures (˜22° C.).

[6] = 0.1 wt % surfactant (actives) in deionized water
[7] = 0.2 wt % surfactant (actives) in deionized water
[8] = 0.4 wt % surfactant (actives) in deionized water
[9] = 1.00E+00 weight % surfactant in 0.005M NaCl
[10] = 1.00E-01 weight % surfactant in 0.005M NaCl
[11] = 1.00E-02 weight % surfactant in 0.005M NaCl
[12] = 1.00E-03 weight % surfactant in 0.005M NaCl
[13] = 1.00E-04 weight % surfactant in 0.005M NaCl
[14] = 1.00E-05 weight % surfactant in 0.005M NaCl
[15] = 3.00E-03 weight % surfactant in 0.005M NaCl

Row | Compound | Spread diameter [1, 6] | Spread diameter [1, 7] | Spread diameter [1, 8] | Cloud Point (50 g/L) [2] | CMC [5] | Surface Tension [5, 9] | Surface Tension [5, 10] | Surface Tension [5, 11] | Surface Tension [5, 12] | Surface Tension [5, 13] | Surface Tension [5, 14] | Surface Tension [5, 15] | further results
1 | C[N+](C)(CCCO)CC(O)COCCC[Si](C)(C)CC[Si](C)(C)C (stereo not drawn) [QC-1] | 13 | 33 | 47 | >95 °C |  |  |  |  |  |  |  |  | Glyphosate uptake relative to TAE-2 ([3]; 2 HAT, even at a 4x lower use rate): significantly enhances glyphosate uptake; Uptake % of 14C-glyphosate ([3]; adjuvant 0.05 % w/v, 2 HAT): 40.1 d %; Uptake % of 14C-glyphosate ([3]; adjuvant 0.05 % w/v, 24 HAT): 57.6 be %; Uptake % of 14C-glyphosate ([3]; adjuvant 0.1 % w/v, 2 HAT): 34.8 e %; Uptake % of 14C-glyphosate ([3]; adjuvant 0.1 % w/v, 24 HAT): 56.2 c %; Uptake % of 14C-glyphosate ([3]; adjuvant 0.2 % w/v, 2 HAT): 36.2 de %; Uptake % of 14C-glyphosate ([3]; adjuvant 0.2 % w/v, 24 HAT): 61.6 b %
2 | CCCC[N+](C)(C)CC(O)COCCC[Si](C)(C)CC[Si](C)(C)C (stereo not drawn) [QC-3] | 14 | 23 | 36 | Hazy at 20 °C |  |  |  |  |  |  |  |  | 
3 | C[N+](C)(CCCO)CC(O)COCCC[Si](C)(C)CC[Si](C)(C)C (stereo not drawn) [QC-1A] |  |  |  |  |  |  |  |  |  |  |  |  | Spread Diameter (Actual) [4]: 48 mm; Spread Diameter (Predicted) ([4]; weighted average): 48 mm
4 | C[N+](C)(CC(O)CO)CC(O)COCCC[Si](C)(C)CC[Si](C)(C)C (stereo not drawn) [QC-2] | 10 | 23 | 40 | >95 °C |  |  |  |  |  |  |  |  | 
5 | COCCOCCOCCOCCOCCOCCOCCOCCOCCC[Si](C)(C)CC[Si](C)(C)C [Comparative-A, (CH3)3—Si—CH2CH2Si(CH3)2CH2CH2CH2O(CH2CH2O)8CH3] | 43 | 54 |  |  | 0.005 wt % | 23.7 mN/m | 24.4 mN/m | 25.4 mN/m | 34.8 mN/m | 48.7 mN/m | 62.4 mN/m | 30.1 mN/m | 
6 | C[N+](C)(CCCO)CC(O)COCCC[Si](C)(O[Si](C)(C)C)O[Si](C)(C)C (stereo not drawn) [TSQ-1] | 15 | 30 |  |  | 0.009 wt % | 19.9 mN/m | 20.2 mN/m | 22.3 mN/m | 38.3 mN/m | 55.6 mN/m | 66.7 mN/m | 28.7 mN/m | 
7 | (CH3)3—Si—O—Si(CH3)(Z)—OS i(CH3)3 Where Z=—CH2CH2CH2O(CH2CH2O)8CH3 [Comparative-B] |  |  |  | Cloudy at 20° C.^a. | 0.01 wt % | 20.6 mN/m | 20.7 mN/m | 21.5 mN/m | 34.2 mN/m | 45.1 mN/m | 52.9 mN/m | 27.0 mN/m | Dispersibility in the glyphosate formulation (visual) ([2]; 5% surfactant in glyphosate-isopropyl amine 480 g/L, 20-22° C.): insoluble in the glyphosate formulation
